Source: publication PMC3563301 (Journal of medicinal chemistry, 2012)

What was measured:
[1] = system: U87MG cells; assay: Loss of mitochondrial potential; assay type: cell-based, human; details: 30 μM, 24 h, JC-1
[2] = system: HeLa, HT29, A549, HCT 116, and HCT 15 cell lines; assay: Average growth inhibition over five cell lines; assay type: cell-based; details: Homo sapiens, read-out: average IC50 for the five cell lines, HeLa, HT-29, A549, HCT 116, HCT 15; for comparative purposes
[3] = biological target: CYP2D6 (Homo sapiens, UniProt P10635); assay: CYP450 inhibition, CYP2D6; assay type: biochemical; details: recombinant CYP2D6 (Supersomes, Gentest), pH 7.4
Chain of CYP2D6 (P10635 whole entry): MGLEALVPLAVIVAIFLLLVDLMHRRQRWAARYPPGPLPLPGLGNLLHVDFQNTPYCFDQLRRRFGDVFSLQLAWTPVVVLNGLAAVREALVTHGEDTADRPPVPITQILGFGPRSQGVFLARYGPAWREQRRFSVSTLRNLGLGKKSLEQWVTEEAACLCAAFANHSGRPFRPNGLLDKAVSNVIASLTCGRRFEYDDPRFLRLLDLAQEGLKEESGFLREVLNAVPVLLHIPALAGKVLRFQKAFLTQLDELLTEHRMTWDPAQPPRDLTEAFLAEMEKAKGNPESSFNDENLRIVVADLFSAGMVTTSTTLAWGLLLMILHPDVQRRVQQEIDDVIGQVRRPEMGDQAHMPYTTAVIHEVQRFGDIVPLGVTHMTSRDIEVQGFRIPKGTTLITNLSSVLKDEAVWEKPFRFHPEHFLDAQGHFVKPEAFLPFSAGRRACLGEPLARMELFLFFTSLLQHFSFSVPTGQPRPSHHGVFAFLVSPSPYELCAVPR

[4] = system: OVCAR-8; assay: Growth inhibition of OVCAR-8 cells; assay type: cell-based; details: Homo sapiens, OVCAR-8, 96 h, read-out: IC50 ± SD OVCAR-8
[5] = Caco-2 cell permeability; assay type: in vitro ADME; details: human
[6] = system: U87MG cells; assay: ROS generation; assay type: cell-based, human; details: 400 mM H2O2, 1 h treatment

In the case of `N#CC(C#N)=NNc1cccc(Cl)c1` [CCCP, carbonyl cyanide m-chlorophenylhydrazone], the mitochondrial potential dissipation [1] is reported as “about 50%”.

For `COc1ccc(/C=C\c2cc(OC)c(OC)c(OC)c2)cc1O` [Compound 2, combretastatin A-4], the IC50 [2] was over 2.03 µM.

In the case of `COc1cc(Sc2c(-n3ccnc3)[nH]c3ccccc23)cc(OC)c1OC` [Compound 18, 2-(1H-Imidazol-1-yl)-3-((3,4,5-trimethoxyphenyl)thio)-1H-indole], the inhibition at 30 min, 1 µM [3] is reported as under 50%.

`COc1cc(Sc2c(-n3cncn3)[nH]c3ccccc23)cc(OC)c1OC` [Compound 20, 2-(1H-1,2,4-Triazol-1-yl)-3-((3,4,5-trimethoxyphenyl)thio)-1H-indole] showed an inhibition at 30 min, 1 µM [3] of under 50%.

`COc1cc(Sc2c(-c3cccnc3)[nH]c3ccccc23)cc(OC)c1OC` [Compound 55, 2-(Pyridin-3-yl)-3-((3,4,5-trimethoxyphenyl)thio)-1H-indole] gave an inhibition at 30 min, 1 µM [3] of under 50%.

For `COc1cc(Sc2c(-c3ccncc3)[nH]c3ccccc23)cc(OC)c1OC` [Compound 57, 2-(Pyridin-4-yl)-3-((3,4,5-trimethoxyphenyl)thio)-1H-indole], the inhibition at 30 min, 1 µM [3] was under 50%.

`CC(=O)O[C@H]1C(=O)[C@@]2(C)[C@H]([C@H](OC(=O)c3ccccc3)[C@]3(O)C[C@H](OC(=O)[C@H](O)[C@@H](NC(=O)c4ccccc4)c4ccccc4)C(C)=C1C3(C)C)[C@]1(OC(C)=O)CO[C@@H]1C[C@@H]2O` [PTX, paclitaxel] showed an IC50 [2] of 0.023 µM.

In the case of `CC[C@]1(O)C[C@@H]2CN(CCc3c([nH]c4ccccc34)[C@@](C(=O)OC)(c3cc4c(cc3OC)N(C)[C@H]3[C@@](O)(C(=O)OC)[C@H](OC(C)=O)[C@]5(CC)C=CCN6CC[C@]43[C@@H]65)C2)C1` [VBL, vinblastine], the IC50 [2] is reported as 0.017 µM and the IC50 [4] is reported as 0.015 ± 0.007 µM.

Molecule `CN/C(=N/CCSCc1nc[nH]c1C)NC#N` [cimetidine] has a Papp A→B at 2 h, 10 μM [5] of 0.11 ×10⁻⁶ cm/s and a Papp B→A at 2 h, 10 μM [5] of 2.13 ×10⁻⁶ cm/s.

With `OO` [hydrogen peroxide] the “ROS, fluorescence intensity with respect to control” value [6] was 208%.
